Entries after “also recorded” stand apart in the source; their conditions may differ. Like-named read-outs stand apart in the source and are kept apart here.
Tests used:
[1] = tested on: bidirectional MLR of blood mononuclear cells; assay: Bidirectional mixed leukocyte reaction (MLR), tritiated thymidine (3Htdr) uptake; type: cell-based, human; details: for inhibition of 3Htdr uptake: blood mononuclear cells with PHA and in bidirectional MLR's, after 6 days in culture, concentration dependent; for T cell activation and proliferation: both by direct stimulation with PHA and in an MLR; for lowest concentration with significant suppression of 3Htdr uptake / most effective concentration (highest concentration tested): PHA / MLR cultures; for suppressing lymphocyte activation evidenced by MLR: in vitro
Description: More particularly, co-cultivation of leukocytes from unrelated individuals leads to blast transformation and proliferation similar to that observed upon addition of mitogens to T-cells. The basis of this reaction appears to be the activation of T-cells from one individual by cell surface markers of another. Co-culturing of blood leukocytes from two individuals is referred to as “mixed leukocyte culture” or “MLC” and the reaction as “mixed leukocyte reaction” or “MLR”. Co-culturing of cells obtained from lymphoid organs is designated “mixed lymphocyte culture” or “mixed lymphocyte reaction”. Since even in the mixed leukocyte reaction, the participating cells are peripheral blood T lymphocytes, there is generally substantially no difference between the two types of culture. Thus, these expressions are used interchangeably herein.
MLR can be carried out using conventional techniques. Cultured cells for the MLR can be derived from peripheral blood, spleen, lymph nodes, or thymus. Cell number can vary by several orders of magnitude. The stimulating cells can be inactivated by irradiation or treatment with an antibiotic to disrupt DNA replication. The culture medium can be supplemented, if necessary, by serum proteins of autologous, syngeneic, allogeneic, or xenogeneic origin. Cultivation can be carried out over a period of several days. The degree of stimulation of responder cells by stimulating cells can be determined from the uptake rate of ^3H-thymidine or radiolabeled amino acids or by counting blasts and dividing cells. If a radiolabel is employed, it can be added to the culture several hours before harvesting.
When blood mononuclear cells from two unrelated individuals are cultured together, mutual stimulation occurs resulting in T cell activation and blastogenesis and ultimately in the generation of cytotoxic T cells and memory cells. This complex series of events, termed the mixed leukocyte reaction (MLR), requires genetic disparaties at the HLA-DR locus. Monocytic cells are needed for antigen processing and presentation. The MLR is thus measures lymphocyte recognition and response to non-self-antigens and serves as an in vitro representation of some of the cellular events associated with graft-versus-host disease (GVHD) and allograft rejection.
(§1) Results are the means SD of triplicate wells.
(§2) All values except those for M1 represent: the means of calculated results from 6 to 8 independent experiments. The M1 results are the average of 2 independent experiments.

TNF mRNA = TNF mRNA level in whole cellular RNA extracted from an MLR; type: cell-based, human; details: MLR containing the compound
Description: There was no decrease in cell viability in the test cultures as assessed by trypan blue dye exclusion (cell viability >95% in all groups). When whole cellular RNA was extracted from an MLR, there was some upregulation of […] compared to cultures of the mononuclear cells cultured individually. However, basal levels of TNF mRNA were readily detectable, possibly due to some activation during the culture period. This was also reflected by significant levels of ^3Htdr uptake.

[2] = tested on: T cell activation antigens (HLA-DR, transferrin receptor, IL-2 receptor, CD69; CD2); assay: Expression of T cell activation antigens by direct immunofluorescence after 6 days in a bidirectional MLR; type: cell-based, human; details: for expression of CD69 / expression of HLA-DR / expression of the IL-2 receptor / expression of the transferrin receptor: to near the levels of mononuclear cells from a single donor
Description: The following fluorescein isothyoc:yanate (FITC) or phycoerythrin (PE) conjugated antibodies were used: IgGl and IgG2a isotype controls, anti-HLe-1 (CD45), anti-LeuM3 (CD14). anti-Leu4(cd3), anti-IL2-receptor (CD25), anti-transferrin receptor (CD71), anti-HLA-DR, and anti-Leu23 (CD69). (All antibodies were from Becton-Dickinson, San Jose, Calif.) Staining was performed using Manufacturer's recommendations ([…] antibody/10^6 cells in 0.1 ml of phosphate buffered saline for 20′ at room temperature). The cells were washed twice, resuspended and analyzed on a Becton-Dickinson FACSan flow cytometer operating under Consort 30 software. The lymphocyte analysis gate was determined on the basis of forward scatter and side scatter and confirmed by examination of two-color immunofluorescence display for CD4S and CD14. Data are presented as the percentage of cells with fluorescence greater than that of the appropriate isotype control.
During T cell activation, there is increased expression of certain cell surface determinants which can serve as markers of activation.

[3] = cited from earlier work; for rank among the metabolites of pentoxifylline: in vivo
[4] = tested on: PHA-stimulated mononuclear cells; assay: PHA-stimulated blood mononuclear cells, tritiated thymidine (3Htdr) uptake; type: cell-based, human; details: rhTNF 200 U/ml added at inception of culture
Description: as §1, §2

TNF = assay: Release of TNF into the culture medium; type: cell-based, human
TNF mRNA in U937 cells = details: cited from earlier work
[5] = human urine, Metabolites II and III together

Compound: CCOCn1cnc2c1c(=O)n(CCCCC(C)(C)O)c(=O)n2C [Compound 1, 7-ethoxymethyl-1-(5-hydroxy-5-methylhexyl)-3-methylxanthine]
- inhibition of 3Htdr uptake [1]: actively inhibited
- T cell activation and proliferation [1]: suppressed
- level of TNF mRNA (TNF mRNA): significantly decreased
- expression of CD2 (non-activation dependent pan-T antigen) [2]: no differences
- expression of CD69 [2]: decreased
- expression of HLA-DR [2]: decreased
- expression of the IL-2 receptor [2]: decreased
- expression of the transferrin receptor [2]: decreased

Compound: CC(O)CCCCn1c(=O)c2c(ncn2C)n(C)c1=O (centres unmarked) [Compound M1, 1-(5-hydroxyhexyl)-3,7-dimethylxanthine]
- lowest concentration with significant suppression of 3Htdr uptake [1]: 0.01 mM
- most effective concentration (highest concentration tested) [1]: 1 mM
- inhibition of 3Htdr uptake [1]: actively inhibited
- T cell activation and proliferation [1]: suppressed
- amount found in urine ([3]; human urine): Only traces
- rank among the metabolites of pentoxifylline [3]: major metabolites

Compound: CCCCn1c(=O)c2c(ncn2CC(C)=O)n(CCCC)c1=O [Denbufylline, 7-acetonyl-1,3-dibutyl-xanthine]
- suppressing lymphocyte activation evidenced by MLR [1]: not effective
- suppressing lymphocyte activation evidenced by MLR ([1]; listed as compound (III)): has not been demonstrated

Compound: Cn1cnc2c1c(=O)n(CCCCC(O)CO)c(=O)n2C (centres unmarked) [Metabolite II, 1-(5,6-dihydroxyhexyl)-3,7-dimethylxanthine]
- share of the excretion products [3, 5]: approximately 12%

Compound: CC(O)C(O)CCCn1c(=O)c2c(ncn2C)n(C)c1=O (centres unmarked) [Metabolite III, 1-(4,5-dihydroxyhexyl)-3,7-dimethylxanthine]
- share of the excretion products [3, 5]: approximately 12%

Compound: Cn1cnc2c1c(=O)n(CCCCC(=O)O)c(=O)n2C [Metabolite IV, 1-(4-carboxybutyl)-3,7-dimethylxanthine]
- share of the excretion products ([3]; human urine): about 8%

Compound: Cn1cnc2c1c(=O)n(CCCC(=O)O)c(=O)n2C [Metabolite V, 1-(3-carboxypropyl)-3,7-dimethylxanthine]
- share of the administered dose in urine ([3]; human urine, main urinary metabolite): 50-60%
- rank among the metabolites of pentoxifylline [3]: major metabolites

Compound: CC(=O)CCCCn1c(=O)c2c(ncn2C)n(C)c1=O [PTX, 1-(5-oxohexyl)-3,7-dimethylxanthine]
- diminution in response to PHA after addition of recombinant human TNF [4]: not abrogated
- lowest concentration with significant suppression of 3Htdr uptake [1]: 0.01 mM
- most effective concentration (highest concentration tested) [1]: 1 mM
- inhibition of 3Htdr uptake [1]: actively inhibited
- T cell activation and proliferation [1]: suppressed
- diminution (suppression) of the MLR after addition of recombinant human TNF ([1]; rhTNF 200 U/ml added at inception of culture): not abrogated; also recorded: not reversed
- level of TNF mRNA (TNF mRNA): significantly decreased
- expression of CD2 (non-activation dependent pan-T antigen) [2]: no differences
- expression of CD69 [2]: decreased
- expression of HLA-DR [2]: decreased
- expression of the IL-2 receptor [2]: decreased
- expression of the transferrin receptor [2]: decreased
- release of the cytokine (TNF) into the culture medium (TNF): decreased
- endotoxin induced upregulation of TNF mRNA (TNF mRNA in U937 cells): can prevent

Reference: patent publication US6420374B1, “Use of xanthines as immunosuppressants and to inhibit allograft reactions” (Fred Hutchinson Cancer Research Center, priority 1990, dated 2002)
